Values of other authors, collected in patent US9623127B2, “Multimodal contrast and radiopharmaceutical agent for an imaging and a targeted therapy guided by imaging” (CENTRE NATIONAL DE LA RECHERCHE SCIENTIFIQUE, priority 2011, dated 2017).

Conditions: 0.6 T, 20° C.

- longitudinal relaxivity r1: 5.4 mM⁻¹ s⁻¹
Structure (SMILES): O=C([O-])CN(CCN(CC(=O)[O-])CC(=O)O)CCN(CC(=O)[O-])CC(=O)O.[Gd+3] [Gd(III)DTPA]
